How the values were obtained:
Assay in all cases: relative viability (nuclei count vs DMSO), 5 days (fraction); higher = more cells survive
Irinotecan + Vorinostat = compound: CCc1c2c(nc3ccc(OC(=O)N4CCC(N5CCCCC5)CC4)cc13)-c1cc3c(c(=O)n1C2)COC(=O)[C@]3(O)CC [Irinotecan] + O=C(CCCCCCC(=O)Nc1ccccc1)NO [Vorinostat] (partner 1 µM)
In short: (§1)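 A single step with final 0.05% Triton X-100, 1% formaldehyde and 1 ug/ml Hoechst fixed the cells and stained nuclei 5 days after treatment. Lung cancer cell lines in 1536-well plates had been treated by pin tool the day after seeding with one drug alone or a fixed anchor-drug dose plus five library-drug doses (not always all listed) in √10 steps, and nuclei were counted on 4× images. Relative viability is the ratio of nuclei in treated wells to nuclei in vehicle wells, taken as the median of duplicate plates.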

MK-8033 + Dasatinib = compound: Cn1cc(-c2cnc3ccc4ccc(CS(=O)(=O)NCc5ccccn5)cc4c(=O)c3c2)cn1 [MK-8033] + Cc1nc(Nc2ncc(C(=O)Nc3c(C)cccc3Cl)s2)cc(N2CCN(CCO)CC2)n1 [Dasatinib] (partner 0.075 µM)
In short: as §1

RU-SKI 43 + Alpelisib = compound: CC[C@@H](C)CNCC(=O)N1CCC2=C([C@@H]1COC3=CC=CC(=C3)C)C=CS2 [RU-SKI 43] + Cc1nc(NC(=O)N2CCC[C@H]2C(N)=O)sc1-c1ccnc(C(C)(C)C(F)(F)F)c1 [Alpelisib] (partner 2 µM)
In short: as §1

Irinotecan + Trametinib = compound: CCc1c2c(nc3ccc(OC(=O)N4CCC(N5CCCCC5)CC4)cc13)-c1cc3c(c(=O)n1C2)COC(=O)[C@]3(O)CC [Irinotecan] + CC(=O)Nc1cccc(-n2c(=O)n(C3CC3)c(=O)c3c(Nc4ccc(I)cc4F)n(C)c(=O)c(C)c32)c1 [Trametinib] (partner 0.02 µM)
In short: as §1

Cell Line	relative viability (Irinotecan + Vorinostat; first compound 0.6325 µM)	relative viability (Irinotecan + Vorinostat; first compound 2 µM)	relative viability (Irinotecan + Vorinostat; first compound 6.325 µM)	relative viability (Irinotecan + Vorinostat; first compound 20 µM)	relative viability (MK-8033 + Dasatinib; first compound 0.02 µM)	relative viability (MK-8033 + Dasatinib; first compound 0.06325 µM)	relative viability (MK-8033 + Dasatinib; first compound 0.2 µM)	relative viability (MK-8033 + Dasatinib; first compound 0.6325 µM)	relative viability (MK-8033 + Dasatinib; first compound 2 µM)	relative viability (RU-SKI 43 + Alpelisib; first compound 0.1 µM)	relative viability (RU-SKI 43 + Alpelisib; first compound 0.3162 µM)	relative viability (RU-SKI 43 + Alpelisib; first compound 1 µM)	relative viability (RU-SKI 43 + Alpelisib; first compound 3.162 µM)	relative viability (RU-SKI 43 + Alpelisib; first compound 10 µM)	relative viability (Irinotecan + Trametinib; first compound 0.6325 µM)	relative viability (Irinotecan + Trametinib; first compound 2 µM)	relative viability (Irinotecan + Trametinib; first compound 6.325 µM)	relative viability (Irinotecan + Trametinib; first compound 20 µM)
NCI-H1666	0.849	0.706	0.788	0.631	0.907	0.769	0.73	0.872	0.827	1.09	1.09	0.966	0.789	0.582	0.769	0.569	0.638	0.432
HARA	–	0.146	0.122	0.135	0.28	0.255	0.223	0.188	0.258	0.762	0.729	0.843	0.69	0.733	0.643	0.373	0.245	0.145
NCI-H661	0.688	0.49	0.344	0.252	0.886	0.818	0.783	0.766	0.858	0.647	0.668	0.846	0.464	0.404	0.464	0.524	0.535	0.209
NCI-H2087	0.235	0.215	0.165	0.16	0.95	0.852	0.754	0.763	0.772	1	1.4	1.12	1.11	0.788	0.0883	0.151	0.137	0.196
LC-2-ad	0.312	0.373	0.283	0.181	0.547	0.437	–	0.67	0.61	0.836	1.02	0.932	0.924	0.779	0.657	0.365	0.275	0.253
NCI-H2405	–	0.956	0.307	0.195	0.185	0.202	0.228	0.213	0.21	0.8	0.787	0.651	0.789	0.721	–	0.734	0.358	0.179
HCC-44	0.998	0.839	0.451	0.461	–	–	–	–	–	0.73	0.72	0.901	0.875	0.802	1.01	0.868	0.561	0.421
NCI-H3122	0.924	0.447	0.199	0.146	0.734	0.655	0.586	0.814	0.876	0.771	0.7	0.743	0.935	0.734	0.192	0.146	0.111	0.108
LU99A	0.305	0.169	0.124	0.127	0.61	0.442	0.626	0.542	0.445	0.526	0.558	0.5	0.578	0.456	0.184	0.182	0.164	0.156
ABC-1	–	0.566	0.405	0.348	0.735	0.434	0.501	0.491	0.61	1.02	1.13	0.895	0.986	1.06	–	–	–	–
H3255	–	0.782	0.343	0.311	0.366	0.347	0.299	0.319	0.438	0.719	0.834	0.773	0.725	0.686	–	0.506	0.346	0.37
HCC-827	0.721	0.766	0.281	0.236	0.334	0.114	0.342	0.283	0.304	0.92	1.06	1.03	1.01	0.965	0.512	0.383	0.202	0.203
NCI-H1734	–	0.522	0.195	0.175	0.441	0.469	0.429	0.411	0.395	0.595	0.698	0.755	0.672	0.671	–	0.261	0.188	0.188
EBC-1	–	–	–	–	–	–	–	–	–	0.784	0.92	0.925	0.799	0.68	–	–	–	–
NCI-H838	0.776	0.703	0.378	0.301	0.258	0.281	0.259	0.279	0.247	0.975	0.969	0.966	0.93	1.02	0.672	0.647	0.319	0.171
NCI-H1437	0.537	0.54	0.407	0.28	0.493	0.419	0.402	0.361	0.419	0.945	1.26	0.964	1.07	0.921	0.477	0.524	0.239	0.157
NCI-H1915	0.307	0.329	0.168	0.147	0.298	0.273	0.309	0.309	0.303	0.991	1.14	1.12	1.05	1.04	0.25	0.175	0.122	0.127
SK-MES-1	0.821	0.756	0.372	0.193	0.347	0.337	0.427	0.365	0.411	0.893	0.879	1.01	1.15	0.892	0.528	0.557	0.311	0.173
NCI-H2342	0.955	0.911	0.836	0.356	0.329	0.277	0.35	0.33	0.352	–	–	–	–	–	0.872	0.89	0.786	0.494
